Assay results taken from PubChem BioAssay (NCI).
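Method: 48-hour compound exposure of cells in 96-well plates, five concentrations, linear interpolation of endpoints. TGI denotes the concentration required for complete inhibition of growth.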

What was measured:
Assay in all cases: DTP human tumour cell line panel, 48 h
HOP-62 NSCLC = tested on: HOP-62 NSCLC
HL-60(TB) leukemia = tested on: HL-60(TB) leukemia
SF-295 CNS = tested on: SF-295 CNS
UACC-62 melanoma = tested on: UACC-62 melanoma
HCT-15 colon = tested on: HCT-15 colon
A498 renal = tested on: A498 renal
UO-31 renal = tested on: UO-31 renal
ACHN renal = tested on: ACHN renal
COLO 205 colon = tested on: COLO 205 colon
SNB-75 CNS = tested on: SNB-75 CNS
M14 melanoma = tested on: M14 melanoma
SF-539 CNS = tested on: SF-539 CNS
DLD-1 colon = tested on: DLD-1 colon
OVCAR-8 ovarian = tested on: OVCAR-8 ovarian
NCI-H23 lung = tested on: NCI-H23 lung
MALME-3M melanoma = tested on: MALME-3M melanoma
DMS 273 small cell lung = tested on: DMS 273 small cell lung
SF-268 CNS = tested on: SF-268 CNS
786-0 renal = tested on: 786-0 renal
U251 CNS = tested on: U251 CNS
LOX IMVI melanoma = tested on: LOX IMVI melanoma
HCT-116 colon = tested on: HCT-116 colon
OVCAR-5 ovarian = tested on: OVCAR-5 ovarian
HOP-92 NSCLC = tested on: HOP-92 NSCLC
HCC-2998 colon = tested on: HCC-2998 colon
IGROV1 ovarian = tested on: IGROV1 ovarian
SW-620 colon = tested on: SW-620 colon
K-562 leukemia = tested on: K-562 leukemia
NCI-H522 lung = tested on: NCI-H522 lung
A549 NSCLC = tested on: A549 NSCLC
TK-10 renal = tested on: TK-10 renal
MOLT-4 leukemia = tested on: MOLT-4 leukemia
HOP-18 NSCLC = tested on: HOP-18 NSCLC
KM12 colon = tested on: KM12 colon
HT29 colon = tested on: HT29 colon
RPMI-8226 leukemia = tested on: RPMI-8226 leukemia
SK-MEL-28 melanoma = tested on: SK-MEL-28 melanoma
SR leukemia = tested on: SR leukemia
SK-MEL-5 melanoma = tested on: SK-MEL-5 melanoma
DMS 114 small cell lung = tested on: DMS 114 small cell lung
SNB-19 CNS = tested on: SNB-19 CNS
NCI-H460 lung = tested on: NCI-H460 lung
M19-MEL melanoma = tested on: M19-MEL melanoma
CAKI-1 renal = tested on: CAKI-1 renal
RXF 393 renal = tested on: RXF 393 renal
SN12C renal = tested on: SN12C renal
CCRF-CEM leukemia = tested on: CCRF-CEM leukemia
SK-OV-3 ovarian = tested on: SK-OV-3 ovarian
SK-MEL-2 melanoma = tested on: SK-MEL-2 melanoma
OVCAR-3 ovarian = tested on: OVCAR-3 ovarian
OVCAR-4 ovarian = tested on: OVCAR-4 ovarian
LXFL 529 NSCLC = tested on: LXFL 529 NSCLC

Q: What does the source list for `O=[N+]([O-])c1ccc(C2CC(c3ccc(NCc4nc5ccccc5[nH]4)cc3)=NO2)cc1` (configuration not stated)?
A: TGI (HOP-62 NSCLC): > 100 µM; TGI (HL-60(TB) leukemia): > 100 µM; TGI (SF-295 CNS): > 100 µM; TGI (UACC-62 melanoma): > 100 µM; TGI (HCT-15 colon): > 100 µM; TGI (A498 renal): 73.5 µM; TGI (UO-31 renal): > 100 µM; TGI (ACHN renal): > 100 µM; TGI (COLO 205 colon): > 100 µM; TGI (SNB-75 CNS): > 100 µM; TGI (M14 melanoma): > 100 µM; TGI (SF-539 CNS): > 100 µM; TGI (DLD-1 colon): > 100 µM; TGI (OVCAR-8 ovarian): > 100 µM; TGI (NCI-H23 lung): > 100 µM; TGI (MALME-3M melanoma): > 100 µM; TGI (DMS 273 small cell lung): > 100 µM; TGI (SF-268 CNS): > 100 µM; TGI (786-0 renal): > 100 µM; TGI (U251 CNS): > 100 µM; TGI (LOX IMVI melanoma): > 100 µM; TGI (HCT-116 colon): > 100 µM; TGI (OVCAR-5 ovarian): > 100 µM; TGI (HOP-92 NSCLC): > 100 µM; TGI (HCC-2998 colon): > 100 µM; TGI (IGROV1 ovarian): > 100 µM; TGI (SW-620 colon): > 100 µM; TGI (K-562 leukemia): > 100 µM; TGI (NCI-H522 lung): > 100 µM; TGI (A549 NSCLC): > 100 µM; TGI (TK-10 renal): > 100 µM; TGI (MOLT-4 leukemia): > 100 µM; TGI (HOP-18 NSCLC): > 100 µM; TGI (KM12 colon): > 100 µM; TGI (HT29 colon): > 100 µM; TGI (RPMI-8226 leukemia): > 100 µM; TGI (SK-MEL-28 melanoma): > 100 µM; TGI (SR leukemia): > 100 µM; TGI (SK-MEL-5 melanoma): 32.5 µM; TGI (DMS 114 small cell lung): > 100 µM; TGI (SNB-19 CNS): > 100 µM; TGI (NCI-H460 lung): > 100 µM; TGI (M19-MEL melanoma): > 100 µM; TGI (CAKI-1 renal): > 100 µM; TGI (RXF 393 renal): > 100 µM; TGI (SN12C renal): > 100 µM; TGI (CCRF-CEM leukemia): > 100 µM; TGI (SK-OV-3 ovarian): > 100 µM; TGI (SK-MEL-2 melanoma): > 100 µM; TGI (OVCAR-3 ovarian): 57.4 µM; TGI (OVCAR-4 ovarian): > 100 µM; TGI (LXFL 529 NSCLC): 97.9 µM
